Assay results as given in the supplement of paper PMC5908809.

Experiments:
[1] = tested on: normal NK cells expanded with K562-aAPC; assay: percent inhibition of viability; higher = more inhibition; settings: 72 h, IL-2 2.5 ng/mL
Procedure: (§1)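 Drug sensitivity and resistance testing on K562-aAPC-expanded normal NK cells: 5 concentrations (10-fold steps over a 10,000-fold range), 72 h at 37 °C, viability by CellTiter-Glo normalised to DMSO and benzethonium chloride controls; DSS from the fitted curve.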

DERL-7 (IL-2 2.5 ng/mL) [2] = assay: as above; settings: 72 h
IMC-1 (IL-2 20 ng/mL) [3] = assay: as above; settings: 72 h
KAI3 (IL-2 2.5 ng/mL) [4] = assay: as above; settings: 72 h
KHYG-1 (IL-2 2.5 ng/mL) [5] = assay: as above; settings: 72 h
NK-92 (IL-2 2.5 ng/mL) [6] = assay: as above; settings: 72 h
NK-YS (IL-2 2.5 ng/mL) [7] = assay: as above; settings: 72 h
NKL (IL-2 2.5 ng/mL) [8] = assay: as above; settings: 72 h
SNK-6 (IL-2 2.5 ng/mL) [9] = assay: as above; settings: 72 h
YT (IL-2 2.5 ng/mL) [10] = assay: as above; settings: 72 h
[11] = tested on: normal primary NK cells, pool 1 (3 donors) (IL-2 2.5 ng/mL); assay: as above; settings: 72 h
[12] = tested on: normal primary NK cells, pool 1 (3 donors), resting (IL-2 0 ng/mL); assay: as above; settings: 72 h
[13] = tested on: normal primary NK cells, pool 2 (3 donors) (IL-2 2.5 ng/mL); assay: as above; settings: 72 h
[14] = tested on: normal primary NK cells, pool 3 (3 donors) (IL-2 2.5 ng/mL); assay: as above; settings: 72 h
[15] = tested on: normal NK cells expanded with K562-aAPC; assay: drug sensitivity score (DSS) (DSS units); higher = more sensitive; extreme values may be limits of the assay; settings: 72 h; IL-2 2.5 ng/mL
Procedure: as §1

DERL-7 (IL-2 2.5 ng/mL) [16] = assay: as above; settings: 72 h
IMC-1 (IL-2 20 ng/mL) [17] = assay: as above; settings: 72 h
KAI3 (IL-2 2.5 ng/mL) [18] = assay: as above; settings: 72 h
KHYG-1 (IL-2 2.5 ng/mL) [19] = assay: as above; settings: 72 h
NK-92 (IL-2 2.5 ng/mL) [20] = assay: as above; settings: 72 h
NK-YS (IL-2 2.5 ng/mL) [21] = assay: as above; settings: 72 h
NKL (IL-2 2.5 ng/mL) [22] = assay: as above; settings: 72 h
SNK-6 (IL-2 2.5 ng/mL) [23] = assay: as above; settings: 72 h
YT (IL-2 2.5 ng/mL) [24] = assay: as above; settings: 72 h
[25] = tested on: normal primary NK cells, pool 1 (3 donors) (IL-2 2.5 ng/mL); assay: as above; settings: 72 h
[26] = tested on: normal primary NK cells, pool 1 (3 donors), resting (IL-2 0 ng/mL); assay: as above; settings: 72 h
[27] = tested on: normal primary NK cells, pool 2 (3 donors) (IL-2 2.5 ng/mL); assay: as above; settings: 72 h
[28] = tested on: normal primary NK cells, pool 3 (3 donors) (IL-2 2.5 ng/mL); assay: as above; settings: 72 h

CC(C)C(=O)Nc1ccc([N+](=O)[O-])c(C(F)(F)F)c1 [Flutamide] (max concentration tested 10000 nM)
percent inhibition of viability [%]
Settings	1 nM	10 nM	100 nM	1000 nM	10000 nM
DERL-7 (IL-2 2.5 ng/mL) [2]	0.26	11.3	-2.83	6.87	2.11
IMC-1 (IL-2 20 ng/mL) [3]	-0.8	-1.46	-1.68	-2.71	12.2
KAI3 (IL-2 2.5 ng/mL) [4]	-0.84	-1.39	-3.89	-2.15	-17.5
KHYG-1 (IL-2 2.5 ng/mL) [5]	-7.32	-1.75	-9.49	-4.37	-1.22
NK-92 (IL-2 2.5 ng/mL) [6]	-9.52	-2.4	-7.94	12.1	22.5
NK-YS (IL-2 2.5 ng/mL) [7]	-0.08	-3.58	-2.41	-5.97	2.23
NKL (IL-2 2.5 ng/mL) [8]	-6.29	8.8	-0.67	5.38	-13.1
SNK-6 (IL-2 2.5 ng/mL) [9]	21.7	46.8	-5.11	31.3	24.2
YT (IL-2 2.5 ng/mL) [10]	-7.4	6	-4.1	6.56	19.1
[1]	-8.49	-7.43	-8.84	-8.3	-13.9
[11]	-3.89	-10.2	-4.34	-7.61	-4.01
[12]	-8.17	-16.6	6.26	-12.5	8.25
[13]	7.09	-4.46	-3.61	-2.09	6.81
[14]	-0.96	0.66	3.21	-0.91	1.69

Settings	drug sensitivity score
DERL-7 (IL-2 2.5 ng/mL) [16]	0
IMC-1 (IL-2 20 ng/mL) [17]	0.02
KAI3 (IL-2 2.5 ng/mL) [18]	0
KHYG-1 (IL-2 2.5 ng/mL) [19]	0
NK-92 (IL-2 2.5 ng/mL) [20]	2.07
NK-YS (IL-2 2.5 ng/mL) [21]	0
NKL (IL-2 2.5 ng/mL) [22]	0
SNK-6 (IL-2 2.5 ng/mL) [23]	0
YT (IL-2 2.5 ng/mL) [24]	1.25
[15]	0
[25]	0
[26]	0
[27]	0
[28]	0

CC(=O)[C@]1(O)Cc2c(O)c3c(c(O)c2[C@@H](O[C@H]2C[C@H](N)[C@H](O)[C@H](C)O2)C1)C(=O)c1ccccc1C3=O [Idarubicin] (max concentration tested 1000 nM)
percent inhibition of viability [%]
Settings	0.1 nM	1 nM	10 nM	100 nM	1000 nM
DERL-7 (IL-2 2.5 ng/mL) [2]	5.69	7.69	65.2	100	101
IMC-1 (IL-2 20 ng/mL) [3]	-7.47	-4.02	65.8	101	101
KAI3 (IL-2 2.5 ng/mL) [4]	12.1	20.2	75.2	88.7	108
KHYG-1 (IL-2 2.5 ng/mL) [5]	-9.43	1.7	74.3	108	110
NK-92 (IL-2 2.5 ng/mL) [6]	0.18	7.35	69.9	108	109
NK-YS (IL-2 2.5 ng/mL) [7]	-9.65	-1.39	71.5	80.4	107
NKL (IL-2 2.5 ng/mL) [8]	5.06	19.9	101	107	110
SNK-6 (IL-2 2.5 ng/mL) [9]	-5.01	-15.7	84.5	96.8	94.4
YT (IL-2 2.5 ng/mL) [10]	-10.7	-9.01	-4.8	100	110
[1]	1.32	-3	56.3	97.4	101
[11]	-4.61	-3.53	21.8	96.4	98.4
[12]	11	17.1	73.4	91.3	94
[13]	6.51	-1.19	51.6	94.8	97.9
[14]	4.34	4.31	46.5	98	100

Settings	drug sensitivity score
DERL-7 (IL-2 2.5 ng/mL) [16]	26.1
IMC-1 (IL-2 20 ng/mL) [17]	25.6
KAI3 (IL-2 2.5 ng/mL) [18]	28.5
KHYG-1 (IL-2 2.5 ng/mL) [19]	26.5
NK-92 (IL-2 2.5 ng/mL) [20]	26.8
NK-YS (IL-2 2.5 ng/mL) [21]	26.4
NKL (IL-2 2.5 ng/mL) [22]	33.7
SNK-6 (IL-2 2.5 ng/mL) [23]	27.1
YT (IL-2 2.5 ng/mL) [24]	17.6
[15]	24.8
[25]	20.9
[26]	27.5
[27]	23.9
[28]	23.2

CN(C)C[C@@H]1CCn2cc(c3ccccc32)C2=C(C(=O)NC2=O)c2cn(c3ccccc23)CCO1 [Ruboxistaurin] (max concentration tested 10000 nM)
percent inhibition of viability [%]
Settings	1 nM	10 nM	100 nM	1000 nM	10000 nM
DERL-7 (IL-2 2.5 ng/mL) [2]	-1.56	1.57	18.1	40.6	99.9
IMC-1 (IL-2 20 ng/mL) [3]	-5.42	-4.44	-4.88	-32.9	100
KAI3 (IL-2 2.5 ng/mL) [4]	0.82	1.03	11.8	32	93.8
KHYG-1 (IL-2 2.5 ng/mL) [5]	1.18	0.63	1.33	34	98.9
NK-92 (IL-2 2.5 ng/mL) [6]	-3.12	-11.3	-3.13	2.96	98.9
NK-YS (IL-2 2.5 ng/mL) [7]	0.95	-3.62	0.25	24.6	97.6
NKL (IL-2 2.5 ng/mL) [8]	-0.55	-7.15	3.58	36.2	93.1
SNK-6 (IL-2 2.5 ng/mL) [9]	-9.54	1.49	-3.03	4.61	99.9
YT (IL-2 2.5 ng/mL) [10]	0.39	0.99	-3.02	5.34	96
[1]	-0.21	-2.52	9.41	31.6	99.7
[11]	-7.03	-9.34	0.45	29	99.8
[12]	-16.4	-10.1	-8.8	45.3	99.1
[13]	-17.6	-5.86	-4.21	13.1	100
[14]	-10.5	-8.66	0.81	14.8	99.8

Settings	drug sensitivity score
DERL-7 (IL-2 2.5 ng/mL) [16]	10.5
IMC-1 (IL-2 20 ng/mL) [17]	4.21
KAI3 (IL-2 2.5 ng/mL) [18]	8.93
KHYG-1 (IL-2 2.5 ng/mL) [19]	10.2
NK-92 (IL-2 2.5 ng/mL) [20]	5.89
NK-YS (IL-2 2.5 ng/mL) [21]	9.16
NKL (IL-2 2.5 ng/mL) [22]	9.73
SNK-6 (IL-2 2.5 ng/mL) [23]	6.19
YT (IL-2 2.5 ng/mL) [24]	6.1
[15]	9.52
[25]	9.78
[26]	11.2
[27]	7.72
[28]	7.99
